Measured values taken from US12264170B2, “Antimicrobial organosilanes” (TOPIKOS SCIENTIFIC, INC., priority 2019, dated 2025).
Values after ≈ are worked out from the molar mass of the structure shown. Read-outs that look alike come from different tables or passages of the source.

Experiments:
[1] = tested on: Staphylococcus aureus ATCC 33591; assay: MIC microdilution assay; type: cell-based; conditions: Staphylococcus aureus, ATCC33591; S. aureus ATCC 33591; CAMHB; 35±2° C. 18 to 20 hours; two values given; read-out: MIC
Protocol: (§1) Strain numbers starting with “ATCC” were acquired from the American Type Culture Collection (Manassas, VA), while strain numbers starting with “CDC” were acquired from the Centers for Disease Control and Prevention (Atlanta, GA). All strains were maintained as −80° C. frozen glycerol stocks. S. aureus and P. aeruginosa were grown overnight on Tryptic Soy Agar (TSA) plates at 35±2° C., ambient atmosphere, while S. pyogenes was grown overnight on TSA+5% defibrinated sheep blood at 35±2° C., 5% CO2. All fungal species (i.e. C. albicans, C. auris and C. herbarum) were grown on Sabouraud Dextrose Agar (SDA) plates. C. herbarum was grown at 25±2° C. for 5 to 7 days, while all other fungal strains were grown at 35±2° C. overnight.
(§2) Test articles Compound 2 (batch #2G13A0.368) and Compound 23 (batch #2G17A0.372) were received and stored at 4° C. The antibiotic Tobramycin and antifungal Amphotericin B were used as quality control (QC) compounds for the MIC assay. Stock solutions of 3.2 mg/mL Tobramycin (Sigma-Aldrich, cat #T1783-500MG) and 3.2 mg/mL Amphotericin B (CP Lab Chemicals, cat #TOK-A007-1G) were prepared in sterile ultrapure water.
(§3) For bacteria strains, a few colonies of each strain were collected with a sterile swab and used to make a McFarland 0.5 standard solution (approximately 1×10^8 CFU/mL) in sterile PBS. The McFarland was then diluted 1:180 in Cation Adjusted Muller-Hinton Broth (CAMHB) for S. aureus and P. aeruginosa, and in CAVHIIB+5% defibrinated sheep blood for S. pyogenes. 90 μL of this inoculum was combined with 10 μL of the 10× test article in a 96-well plate for a final concentration of 1×.
(§4) All bacterial-strain MIC 96-well plates were incubated at 35±2° C. for 18 to 20 hours, while all Candida MIC 96-well plates were incubated at 35±2° C. for 24 to 48 hours. C. herbarum MIC 96-well plates were incubated at 25±2° C. for 3 to 5 days, until growth was visible in the growth control wells. After incubation, the 96-well plates were examined visually and on a spectrophotometer at absorbance OD650. […]

[2] = tested on: Candida auris CDC 0381; assay: MIC microdilution assay; type: cell-based; conditions: Candidozyma auris, CDC0381; C. auris CDC 0381; RPMI media; 35±2° C. 24 to 48 hours; two values given; read-out: MIC
Protocol: as §1, §2, §3
(§5) For the yeasts C. albicans and C. auris, a McFarland 0.5 standard solution in sterile PBS was similarly prepared (approximately 1×10^6 CFU/mL) and was subsequently diluted 1:180 in RPMI 1640 media buffered with 0.165 M MOPS at pH 7.0 (herein referred to as “RPMI media”). 90 μL of the Candida inoculum was combined with 10 μL of the 10× test article in a 96-well plate for a final concentration of 1×.
(§6) All bacterial-strain MIC 96-well plates were incubated at 35±2° C. for 18 to 20 hours, while all Candida MIC 96-well plates were incubated at 35±2° C. for 24 to 48 hours. C. herbarum MIC 96-well plates were incubated at 25±2° C. for 3 to 5 days, until growth was visible in the growth control wells. After incubation, the 96-well plates were examined visually and on a spectrophotometer at absorbance OD650. MIC is defined as the lowest concentration of a compound in which no visible growth is observed.

[3] = tested on: Candida albicans ATCC 90028; assay: MIC microdilution assay; type: cell-based; conditions: Candida albicans, ATCC90028; C. albicans ATCC 90028; RPMI media; 35±2° C. 24 to 48 hours; two values given; read-out: MIC
Protocol: as §1, §2, §3, §5, §6

[4] = tested on: P. aeruginosa ATCC 27853; assay: MIC microdilution assay; type: cell-based, Pseudomonas aeruginosa; conditions: Pseudomonas aeruginosa, ATCC27853, CAMHB, 35±2° C. 18 to 20 hours, two values given, read-out: MIC
Protocol: as §1, §2, §3, §4

[5] = tested on: S. pyogenes ATCC 51339; assay: MIC microdilution assay; type: cell-based, Steptococcus pyogenes; conditions: broth +5% defibrinated sheep blood, 35±2° C. 18 to 20 hours, two values given
Protocol: as §1, §2, §3, §4

[6] = tested on: Candida albicans ATCC 90028; assay: MIC microdilution assay (Example 32); type: cell-based; conditions: Candida albicans, ATCC90028; C. albicans ATCC 90028 (quality control); RPMI media; 35±2° C. 24 to 48 hours; two values given; read-out: MIC
Protocol: (§7) Strain IDs starting with “ATCC” were acquired from the American Type Culture Collection (Manassas, VA), strain IDs starting with “Eurofins” were acquired from Eurofins (Herndon, VA), while strain IDs starting with “CDC” were acquired from the Centers for Disease Control and Prevention (Atlanta, GA). All strains were maintained as −80° C. frozen glycerol stocks. S. aureus and P. aeruginosa were grown overnight on Tryptic Soy Agar (TSA) plates at 35±2° C., ambient atmosphere, while S. pyogenes was grown overnight on TSA+5% defibrinated sheep blood at 35±2° C., 5% CO2. C. jejuni was grown for 48 hours on TSA+5% defibrinated sheep blood at 35±2° C., in a microaerophilic environment generated by CampyGen sachet. All fungal species (i.e. C. albicans and C. auris) were grown overnight on Sabouraud Dextrose Agar (SDA) plates at 35±2° C., ambient atmosphere.
as §2, with “Test article” for “Test articles”, “Compound 1” for “Compound 2”, “(batch #7G30A9.203) was” for “(batch #2G13A0.368) and Compound 23 (batch #2G17A0.372) were received and”
as §3, with “aeruginosa. S. pyogenes McFarland was diluted 1:180” for “aeruginosa, and”, “CAMHB+5%” for “CAVHIIB+5%”, “blood, while C. jejuni McFarland was diluted 1:180 in CAMHB+5% laked horse blood.” for “blood for S. pyogenes.”
as §5
(§8) Except for C. jejuni, all bacterial-strain MIC 96-well plates were incubated at 35±2° C. for 18 to 20 hours, ambient atmosphere. C. jejuni was incubated at 35±2° C. for 48 hours, under microaerophilic condition. All Candida MIC 96-well plates were incubated at 35±2° C. for 24 to 48 hours, ambient atmosphere, until growth in control wells were observed. After incubation, the 96-well plates were examined visually and on a spectrophotometer at absorbance OD650. MIC is defined as the lowest concentration of a compound in which no visible growth is observed.

[7] = tested on: Candida auris CDC 0385; assay: MIC microdilution assay (Example 32); type: cell-based; conditions: Candidozyma auris, CDC0385; C. auris CDC 0385; RPMI media; 35±2° C. 24 to 48 hours; two values given; read-out: MIC
Protocol: as §7
as §2, with “Test article” for “Test articles”, “Compound 1” for “Compound 2”, “(batch #7G30A9.203) was” for “(batch #2G13A0.368) and Compound 23 (batch #2G17A0.372) were received and”
as §3, with “aeruginosa. S. pyogenes McFarland was diluted 1:180” for “aeruginosa, and”, “CAMHB+5%” for “CAVHIIB+5%”, “blood, while C. jejuni McFarland was diluted 1:180 in CAMHB+5% laked horse blood.” for “blood for S. pyogenes.”
as §5, §8

MIC [1]: > 32 µg/mL
MIC [2]: > 32 µg/mL
MIC [3]: > 32 µg/mL
MIC [4]: 0.25 µg/mL (≈ 0.535 µM)
MIC ([5]; S. pyogenes ATCC 51339): 32 µg/mL (≈ 68.4 µM)
MIC ([5]; Streptococcus pyogenes, ATCC51339, S. pyogenes ATCC 51339, read-out: MIC): 16 µg/mL (≈ 34.2 µM)
MIC [6]: > 32 µg/mL
MIC [7]: > 32 µg/mL
Compound: NC[C@H]1O[C@H](O[C@H]2[C@H](O)[C@@H](O[C@H]3O[C@H](CO)[C@@H](O)[C@H](N)[C@H]3O)[C@H](N)C[C@@H]2N)[C@H](N)C[C@@H]1O [Tobramycin]
